# Source: ChEMBL document CHEMBL4651402, “Screening of ~5500 FDA-approved drugs and clinical candidates for anti-SARS-CoV-2 activity” (2021)
# Test system: SARS-CoV-2
# Test: microbe, parasite or virus in culture
# Conditions: Severe acute respiratory syndrome coronavirus 2, Vero C1008, 48 h
SMILES,IC50,IC50 (read-out: pIC50 (converted))
COC(=O)C1=C(C)NC(C)=C(C(=O)OC(C)(C)CN(C)CCC(c2ccccc2)c2ccccc2)C1c1cccc([N+](=O)[O-])c1 (stereo not given) [LERCANIDIPINE],> 20 µM,> 20 µM
CC(C)N1CCN(c2ccc(Nc3ncc4cc5n(c4n3)C3(CCCCC3)CNC5=O)nc2)CC1 [LEROCICLIB],> 20 µM,> 20 µM
CCc1nn(CCO)c(CC)c1Oc1cc(C#N)cc(C#N)c1 [LERSIVIRINE],> 20 µM,> 20 µM
C[C@]12O[C@H](C[C@]1(O)CO)n1c3ccccc3c3c4c(c5c6ccccc6n2c5c31)CNC4=O [LESTAURTINIB],> 20 µM,> 20 µM
N#CC(c1ccc(F)cc1)c1c(Cl)cc(-n2ncc(=O)[nH]c2=O)cc1Cl (stereo not given) [LETRAZURIL],> 20 µM,> 20 µM
N#Cc1ccc(C(c2ccc(C#N)cc2)n2cncn2)cc1 [LETROZOLE],> 20 µM,> 20 µM
CC(C)C[C@H](N)C(=O)O [LEUCINE],> 20 µM,> 20 µM
Nc1nc(=O)c2c([nH]1)NCC(CNc1ccc(C(=O)N[C@@H](CCC(=O)O)C(=O)O)cc1)N2C=O (stereo not given in full) [LEUCOVORIN],> 20 µM,> 20 µM
C[C@@H](N)Cc1ccccc1 [LEVAMFETAMINE],> 20 µM,> 20 µM
c1ccc([C@H]2CN3CCSC3=N2)cc1 [LEVAMISOLE],> 20 µM,> 20 µM
CC1(C)Oc2ccc(C#N)cc2[C@@H](N2CCCC2=O)[C@@H]1O [LEVCROMAKALIM],> 20 µM,> 20 µM
N[C@H]1CONC1=O [LEVCYCLOSERINE],> 20 µM,> 20 µM
CC(C)(C)NC[C@H](O)COc1cccc2c1CCCC2=O [LEVOBUNOLOL],> 20 µM,> 20 µM
C[C@@H]1CN([C@H]2CC[C@](C#N)(c3ccc(F)cc3)CC2)CC[C@]1(C(=O)O)c1ccccc1 [LEVOCABASTINE],> 20 µM,> 20 µM
C[N+](C)(C)C[C@H](O)CC(=O)[O-] [LEVOCARNITINE],> 20 µM,> 20 µM
N[C@@H](Cc1ccc(O)c(O)c1)C(=O)O [LEVODOPA],> 20 µM,> 20 µM
C[C@@H](CN1CCOCC1)C(C(=O)N1CCCC1)(c1ccccc1)c1ccccc1 [LEVOMORAMIDE],> 20 µM,> 20 µM
CC(=O)Oc1cc(O[C@H](C)CCCc2ccccc2)cc2c1[C@@H]1C[C@H](O)CC[C@H]1[C@H](C)N2 [LEVONANTRADOL],> 20 µM,> 20 µM
C[C@H](N)[C@H](O)c1ccc(O)c(O)c1 [LEVONORDEFRIN],> 20 µM,> 20 µM
CN[C@@H](C)CC1CCCCC1 [LEVOPROPYLHEXEDRINE],> 20 µM,> 20 µM
CN1CC[C@]23CCCC[C@H]2[C@H]1Cc1ccc(O)cc13 [LEVORPHANOL],> 20 µM,> 20 µM
C[C@@H]1CC(=O)NN=C1c1ccc(NN=C(C#N)C#N)cc1 [LEVOSIMENDAN],> 20 µM,> 20 µM
N[C@@H](Cc1cc(I)c(Oc2cc(I)c(O)c(I)c2)c(I)c1)C(=O)O [LEVOTHYROXINE],> 20 µM,> 20 µM
Clc1cccc(C(c2ccc3[nH]cnc3c2)n2ccnc2)c1 (stereo not given) [LIAROZOLE],> 20 µM,> 20 µM
C=CC(C)(C)c1cc(/C=C/C(=O)c2ccc(O)cc2)c(OC)cc1O [LICOAGROCHACONE A],> 20 µM,> 20 µM
CC1(C)Cc2c(-c3ccccc3)c(-c3ccc(Cl)cc3)c(CC(=O)O)n2C1 [LICOFELONE],> 20 µM,> 20 µM
CNC(=N)NC(=O)Nc1c(C)cccc1C [LIDAMIDINE],> 20 µM,> 20 µM
COc1ccc(C2CNC(=O)C2)cc1OCCCN1CCC(C(=O)c2ccc(F)cc2)CC1 (stereo not given) [LIDANSERIN],> 20 µM,> 20 µM

SMILES,IC50,IC50 (read-out: pIC50 (converted))
CCN(CC)CC(=O)Nc1c(C)cccc1C [LIDOCAINE],> 20 µM,> 20 µM
Cc1cccc(C)c1NC(=O)CN(CC(=O)O)CC(=O)O [LIDOFENIN],> 20 µM,> 20 µM
Cc1ccc(-c2nc(CN3CCN(C(c4ccccc4)c4ccccc4)CC3)c(C)[nH]2)cc1 [LIFARIZINE],> 20 µM,> 20 µM
Cc1nc(C)c(C)nc1C [LIGUSTRAZINE],> 20 µM,> 20 µM
CC(C)(C)c1ccc(Oc2ccc(N)cn2)cc1 [LIMANTRAFIN],> 20 µM,> 20 µM
CC#CCn1c(N2CCC[C@@H](N)C2)nc2c1c(=O)n(Cc1nc(C)c3ccccc3n1)c(=O)n2C [LINAGLIPTIN],> 20 µM,> 20 µM
Cc1cccc(C)c1CNc1cc(C(=O)NCCO)cn2c(C)c(C)nc12 [LINAPRAZAN],> 20 µM,> 20 µM
CCC[C@@H]1C[C@@H](C(=O)N[C@@H]([C@H]2O[C@H](SC)[C@H](O)[C@@H](O)[C@H]2O)[C@@H](C)O)N(C)C1 [LINCOMYCIN],> 20 µM,> 20 µM
CC(=O)NC[C@H]1CN(c2ccc(N3CCOCC3)c(F)c2)C(=O)O1 [LINEZOLID],> 20 µM,> 20 µM
Cc1ccc(F)c(NC(=O)Nc2ccc(-c3cccc4[nH]nc(N)c34)cc2)c1 [LINIFANIB],> 20 µM,> 20 µM
CN1CCC/C1=N\C(=N\c1ccccc1)N1CCOCC1 [LINOGLIRIDE],> 20 µM,> 20 µM
CCCCC/C=C\C/C=C\CCCCCCCC(=O)O [LINOLEIC ACID],> 20 µM,> 20 µM
O=C1N(c2ccccc2)c2ccccc2C1(Cc1ccncc1)Cc1ccncc1 [LINOPIRDINE],> 20 µM,> 20 µM
[NH-]c1c[n+](N2CCOCC2)no1 [LINSIDOMINE],> 20 µM,> 20 µM
C[C@]1(O)C[C@@H](c2nc(-c3ccc4ccc(-c5ccccc5)nc4c3)c3c(N)nccn32)C1 [LINSITINIB],> 20 µM,> 20 µM
CCN1CCN=C1CNC(=O)c1cc(Cl)c(N)cc1OC [LINTOPRIDE],> 20 µM,> 20 µM
"O=C(O)CCCCC1CCSS1 (stereo not drawn) [LIPOIC ACID, ALPHA]",> 20 µM,> 20 µM
COc1cccc(N(C)C(=S)Oc2ccc3c(c2)CCCC3)n1 [LIRANAFTATE],> 20 µM,> 20 µM
NCCCC[C@H](N[C@@H](CCc1ccccc1)C(=O)O)C(=O)N1CCC[C@H]1C(=O)O [LISINOPRIL ANHYDROUS],> 20 µM,> 20 µM
C[C@@H](O)CCCCn1c(=O)c2c(ncn2C)n(C)c1=O [LISOFYLLINE],> 20 µM,> 20 µM
c1ccc2cc(COC3CCNCC3)ccc2c1 [LITOXETINE],> 20 µM,> 20 µM
CN1[C@@H](CC(=O)c2ccccc2)CCC[C@H]1C[C@H](O)c1ccccc1 [LOBELINE],> 20 µM,> 20 µM
CCOC(=O)Nc1nc2ccccc2[nH]1 [LOBENDAZOLE],> 20 µM,> 20 µM
N#Cc1cc(NC(=O)C(=O)O)c(Cl)c(NC(=O)C(=O)O)c1 [LODOXAMIDE],> 20 µM,> 20 µM
CN(CCCN1c2ccccc2CCc2ccccc21)CC(=O)c1ccc(Cl)cc1 [LOFEPRAMINE],> 20 µM,> 20 µM
CC(Oc1c(Cl)cccc1Cl)C1=NCCN1 (stereo not given) [LOFEXIDINE],> 20 µM,> 20 µM
Fc1ccc(NC(=S)Nc2cc(Cl)cc(Cl)c2)cc1 [LOFLUCARBAN],> 20 µM,> 20 µM
